# Values quoted from earlier work as cited in patent US20080139517A1, “Methods of treating age associated memory impairment (AAMI), mild cognitive impairment (MCI), and dementias with cell cycle inhibitors” (priority 2002, published 2008).
# Columns and labels:
# [1] = system: ERK-1 and ERK-2 (p44 and p42 MAPK); conditions: in response to hypoxia/reoxygenation injury
# [2] = system: leukemia cells; conditions: G1 phase
# [3] = target: cdk4 (Homo sapiens, UniProt P11802)
# [4] = system: neuronal death
# [5] = system: moderate to severe AD; conditions: in vivo
# [6] = system: vascular dementia; conditions: in vivo
# [7] = system: p21 ras
# [8] = system: glioma cell lines
# [9] = system: human cancer cells; conditions: demonstrated in non-small-cell lung cancer cells
# [10] = system: cyclin D1
# [11] = children
# [12] = system: cell cycle
# [13] = system: cdc 2
# [14] = system: PC12 cells; conditions: presence of nerve growth factor
# Chain of cdk4 (P11802 whole entry, species assumed): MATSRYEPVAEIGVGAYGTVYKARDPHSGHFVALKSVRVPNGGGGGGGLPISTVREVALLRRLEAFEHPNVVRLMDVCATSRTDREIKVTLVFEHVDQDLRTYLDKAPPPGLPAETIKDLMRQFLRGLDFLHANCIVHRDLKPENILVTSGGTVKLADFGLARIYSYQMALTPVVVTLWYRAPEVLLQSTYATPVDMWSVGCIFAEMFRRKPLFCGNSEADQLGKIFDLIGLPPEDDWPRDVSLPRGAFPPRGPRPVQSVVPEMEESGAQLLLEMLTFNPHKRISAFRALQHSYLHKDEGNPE
# Chain of cdk4 (P24385 whole entry partner, species assumed): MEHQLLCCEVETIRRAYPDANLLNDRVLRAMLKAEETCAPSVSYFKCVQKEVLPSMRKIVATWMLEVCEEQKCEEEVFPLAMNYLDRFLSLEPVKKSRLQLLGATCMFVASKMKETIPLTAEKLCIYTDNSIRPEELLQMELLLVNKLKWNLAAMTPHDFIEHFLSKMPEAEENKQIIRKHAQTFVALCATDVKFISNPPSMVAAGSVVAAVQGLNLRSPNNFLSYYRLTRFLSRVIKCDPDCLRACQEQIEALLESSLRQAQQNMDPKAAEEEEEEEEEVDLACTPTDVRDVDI
smiles,measurement,setting,value
"CC(=O)Oc1ccccc1C(=O)O [Aspirin, Acetylsalicylic acid]",ERK-1 and ERK-2 (p44 and p42 MAPK) activation,[1],inhibit
"NS(=O)(=O)c1ccc(S(=O)(=O)Nc2cccc3c(Cl)c[nH]c23)cc1 [E7070, N-(3-chloro-7-indolyl)-1,4-benzenedisulfonamide]",cell cycle progression of leukemia cells,[2],block
O=C1c2ccccc2-[n+]2ccc3c([nH]c4ccccc43)c21 [Fascaplysin],cdk4 inhibition,[3],specifically inhibit
C[C@]12N[C@H](Cc3ccccc31)c1ccccc12 [MK801],excitotoxic neuronal death,[4],blocks
CC12CC3CC(C)(C1)CC(N)(C3)C2 [Memantine],treatment of moderate to severe AD,[5],useful
same,treatment of vascular dementia,[6],useful
Cn1cncc1[C@@](N)(c1ccc(Cl)cc1)c1ccc2c(c1)c(-c1cccc(Cl)c1)cc(=O)n2C [R115777],p21 ras activation,[7],prevent
NC(=O)N1CCC(CC(=O)N2CCC([C@H]3c4ncc(Br)cc4CCc4cc(Cl)cc(Br)c43)CC2)CC1 [SCH66336],p21 ras activation,[7],prevent
"CCCC(CCC)C(=O)O [Valproate, valproic acid]",cell cycle arrest in glioma cell lines,[8],induce cell cycle arrest
"C[C@@H]1C[C@H]1[C@H](C)C[C@@H](O)[C@@]1([C@H]2CC[C@H]3[C@@H]4CC[C@H]5CC(=O)CC[C@]5(C)[C@H]4C[C@@H](O)[C@]23C)CO1 [YTA0040, Aragusterol A]",cell cycle arrest of human cancer cells,[9],arrested human cancer cells cycle in the G1 phase
CN1CC[C@H](c2c(O)cc(O)c3c(=O)cc(-c4ccccc4Cl)oc23)[C@H](O)C1 [flavopiridol],excitotoxic neuronal death,[4],blocks
C=C(C)[C@H]1CN[C@H](C(=O)O)[C@H]1CC(=O)O [kainic acid],cyclin D1 expression,[10],upregulates
CN(Cc1cnc2nc(N)nc(N)c2n1)c1ccc(C(=O)N[C@@H](CCC(=O)O)C(=O)O)cc1 [methotrexate],cognitive impairment associated with treatment,[11],learning disabilities
CC[C@H](CO)Nc1nc(NCc2ccccc2)c2ncn(C(C)C)c2n1 [roscovitine],cell cycle arrest,[12],cell cycle arrest at the G1 phase
CCCC(=O)[O-].[Na+] [sodium butyrate],expression of late G1 phase genes such as cdc 2,[13],inhibits
C=CC[C@@H]1/C=C(\C)C[C@H](C)C[C@H](OC)[C@H]2O[C@@](O)(C(=O)C(=O)N3CCCC[C@H]3C(=O)O[C@H](/C(C)=C/[C@@H]3CC[C@@H](O)[C@H](OC)C3)[C@H](C)[C@@H](O)CC1=O)[C@H](C)C[C@@H]2OC [tacrolimus],neurite outgrowth,[14],little effect
